{"source": "paper PMC5800995", "about": "(Biochemical pharmacology, 2018)", "target": "human D2LR E95^2.65A (Homo sapiens, UniProt P14416, E95A)", "sequence (P14416 whole entry E95A)": "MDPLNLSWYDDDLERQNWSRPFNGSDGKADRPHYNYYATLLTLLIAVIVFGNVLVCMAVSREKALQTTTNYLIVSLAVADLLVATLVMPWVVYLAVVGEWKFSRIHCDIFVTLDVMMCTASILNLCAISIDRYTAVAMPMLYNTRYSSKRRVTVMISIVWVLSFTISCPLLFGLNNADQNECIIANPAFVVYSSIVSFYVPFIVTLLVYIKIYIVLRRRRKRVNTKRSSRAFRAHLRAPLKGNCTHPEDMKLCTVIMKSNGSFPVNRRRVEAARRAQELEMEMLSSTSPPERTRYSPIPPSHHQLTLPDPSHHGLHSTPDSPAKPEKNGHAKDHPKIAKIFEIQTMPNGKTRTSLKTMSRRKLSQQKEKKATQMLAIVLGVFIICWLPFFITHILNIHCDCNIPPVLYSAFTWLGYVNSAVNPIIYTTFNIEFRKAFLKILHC", "test": "ERK1/2 phosphorylation, E95^2.65A", "assay_type": "cell-based", "conditions": "for Kb: read-out: KB Function (pERK1/2); for Schild slope: dopamine-mediated pERK1/2, competitive model"}
{"smiles": "N#Cc1ccc2c(c1)CN(CCC1CCC(NC(=O)c3cc4cccnc4[nH]3)CC1)CC2", "note": "(stereo not drawn) [MIPS1588]", "values": [{"measurement": "Logαβ (net cooperativity with dopamine)", "value": "−1.12 ± 0.16"}, {"measurement": "fold loss in functional affinity vs WT", "value": 27, "unit": "fold"}, {"measurement": "pKB Function (pERK1/2)", "value": "5.90 ± 0.20"}, {"measurement": "αβ (net cooperativity with dopamine)", "value": 0.08}, {"measurement": "Kb", "value": 1.26, "unit": "µM"}]}
{"smiles": "O=C(N[C@H]1CC[C@H](CCN2CCc3ccc(Br)cc3C2)CC1)c1cc2ccccc2[nH]1", "note": "[MIPS1556]", "values": [{"measurement": "pKB Function (pERK1/2)", "value": "5.96 ± 0.12"}, {"measurement": "Schild slope", "value": "1.08 ± 0.09"}]}
{"smiles": "O=C(N[C@H]1CC[C@H](CCN2CCc3ccccc3C2)CC1)c1cc2ccccc2[nH]1", "note": "[MIPS1278]", "values": [{"measurement": "Logαβ (net cooperativity with dopamine)", "value": "−0.30 ± 0.20"}, {"measurement": "fold loss in functional affinity vs WT", "value": 709, "unit": "fold"}, {"measurement": "pKB Function (pERK1/2)", "value": "4.21 ± 0.15"}, {"measurement": "αβ (net cooperativity with dopamine)", "value": 0.50}, {"measurement": "fold loss in negative cooperativity with dopamine vs WT", "setting": "pERK1/2", "value": 6, "unit": "fold"}, {"measurement": "Kb", "value": 61.7, "unit": "µM"}]}
{"smiles": "N#Cc1ccc2c(c1)CN(CCC1CCC(NC(=O)c3nc4ccccc4o3)CC1)CC2", "note": "(stereo not drawn) [MIPS1528]", "values": [{"measurement": "pKB Function (pERK1/2)", "value": "5.92 ± 0.07"}, {"measurement": "Schild slope", "value": "1.68 ± 0.10"}, {"measurement": "Kb", "value": 1.2, "unit": "µM"}]}
{"smiles": "N#Cc1ccc2c(c1)CN(CCC1CCC(NC(=O)c3ccc[nH]3)CC1)CC2", "note": "(stereo not drawn) [MIPS1576]", "values": [{"measurement": "Logαβ (net cooperativity with dopamine)", "value": "−1.24 ± 0.10"}, {"measurement": "fold loss in functional affinity vs WT", "value": 24, "unit": "fold"}, {"measurement": "pKB Function (pERK1/2)", "value": "7.02 ± 0.15"}, {"measurement": "αβ (net cooperativity with dopamine)", "value": 0.06}, {"measurement": "Kb", "value": 0.095, "unit": "µM"}]}
